EC50 and Emax data for 16 compounds are collected here from US9822130B2, “Triazolo-pyrazinyl derivatives useful as soluble guanylate cyclase activators” (Merck Sharp & Dohme Corp., priority 2014, dated 2017).

The experiment deals with T1, sGC α1/β1 heterodimer stably expressed in CHO-K1 cell line (CHO-K1/sGC) (Homo sapiens, UniProt Q02108+Q02153).
T1 construct: expressed in transfected cells
T1 sequence (Q02108 1-690): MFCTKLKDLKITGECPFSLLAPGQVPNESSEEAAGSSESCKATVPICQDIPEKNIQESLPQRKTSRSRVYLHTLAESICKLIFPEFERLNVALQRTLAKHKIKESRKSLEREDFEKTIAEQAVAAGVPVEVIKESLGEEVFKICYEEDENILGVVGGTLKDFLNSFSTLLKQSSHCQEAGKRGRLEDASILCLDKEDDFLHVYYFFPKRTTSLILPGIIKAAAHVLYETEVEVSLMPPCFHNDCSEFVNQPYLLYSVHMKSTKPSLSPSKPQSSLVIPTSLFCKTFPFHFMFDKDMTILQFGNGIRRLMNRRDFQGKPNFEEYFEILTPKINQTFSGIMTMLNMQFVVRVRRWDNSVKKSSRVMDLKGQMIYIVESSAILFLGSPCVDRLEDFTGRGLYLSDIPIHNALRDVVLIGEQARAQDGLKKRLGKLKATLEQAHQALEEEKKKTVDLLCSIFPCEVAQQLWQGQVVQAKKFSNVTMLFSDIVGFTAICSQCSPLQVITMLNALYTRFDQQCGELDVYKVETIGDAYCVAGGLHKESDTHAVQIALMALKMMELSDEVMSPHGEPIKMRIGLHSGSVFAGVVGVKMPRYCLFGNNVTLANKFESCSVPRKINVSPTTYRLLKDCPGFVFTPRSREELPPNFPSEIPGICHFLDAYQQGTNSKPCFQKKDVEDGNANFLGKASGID
T1 sequence (Q02153 1-619): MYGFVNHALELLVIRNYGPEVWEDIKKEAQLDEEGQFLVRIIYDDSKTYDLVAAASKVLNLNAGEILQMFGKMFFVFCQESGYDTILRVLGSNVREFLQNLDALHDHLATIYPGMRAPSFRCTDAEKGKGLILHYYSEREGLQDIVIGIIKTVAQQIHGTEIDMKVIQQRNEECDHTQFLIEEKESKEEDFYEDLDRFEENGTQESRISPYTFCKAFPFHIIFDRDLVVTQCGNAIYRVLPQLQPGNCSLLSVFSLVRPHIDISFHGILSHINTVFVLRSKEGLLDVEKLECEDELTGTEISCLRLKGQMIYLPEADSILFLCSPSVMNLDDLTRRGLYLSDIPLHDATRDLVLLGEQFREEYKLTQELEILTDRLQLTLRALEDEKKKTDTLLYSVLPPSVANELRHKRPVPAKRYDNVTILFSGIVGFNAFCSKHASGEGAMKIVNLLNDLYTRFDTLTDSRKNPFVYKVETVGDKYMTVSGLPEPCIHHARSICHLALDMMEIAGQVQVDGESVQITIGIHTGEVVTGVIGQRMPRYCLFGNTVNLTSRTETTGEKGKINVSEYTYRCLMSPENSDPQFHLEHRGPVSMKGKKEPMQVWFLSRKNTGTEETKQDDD
Briefly: Cell-based sGC Functional Assay (CASA Assay), cGMP generation. The following applies: CHO-K1/sGC cells, 1 hr at 37° C., cGMP by HTRF, presence or absence of 1 μM DETA-NO not given; for EC50: 4P fit, read-out: IP (nM) (inflection point); for Emax: read-out: % Act. (percent activation relative to maximum cGMP production of Compound A = 100%). From the text: sGC is a heme-containing enzyme that converts GTP to secondary messenger cGMP. Increases in cGMP levels affect several physiological processes including vasorelaxation through multiple downstream pathways. […] Heme-dependent activators (HDAs) preferentially activate sGC containing a ferrous heme group. To determine the effect of sGC activators on enzyme activity, the CASA assay was developed to monitor the generation of cGMP in a cell line that stably expresses the heterodimeric sGC protein.
A CHO-K1 cell line stably expressing the sGC α1/β1 heterodimer was generated using a standard transfection protocol. CHO-K1 cells were transfected with plasmids pIREShyghsGCα1 and pIRESneo-hsGCβ1 simultaneously using FUGENE reagent. Clones that stably express both subunits were selected with hygromycin and neomycin for ˜2 weeks. Clone #7 was chosen for the assay and was designated CHO-K1/sGC. CHO-K1/sGC cells were maintained in F-K12 medium containing 10% heat-inactivated Fetal Bovine Serum (FBS), 100 μg/mL penicillin/streptomycin, 0.5 mg/mL hygromycin and 0.25 mg/mL G418. The cells were then cryopreserved in LN2. On the day of the assay, cells thawed and resuspended in EBSS Assay Buffer (Sigma, E3024) supplemented with 5 mM MgCl2, 10 mM HEPES (4-(2-hydroxyethyl)piperazine-1-ethanesulfonic acid) and 0.05% BSA (bovine serum albumin) (EAB) and cell density was then adjusted to 4×10^5/mL with EAB, IBMX (3-isobutyl-1-methylxanthin, 0.5 mM) was added to inhibit degradation of cGMP. Compounds were diluted from DMSO stock solutions and added to the assay at a final DMSO concentration of 2.5%. Cells were incubated with compounds in the presence and absence of 1 μM of Diethylenetriamine/nitric oxide adduct (DETA-NO; Sigma, 17018) for 1 hr at 37° C. At the end of the incubation period, the reaction was terminated and the cells were lysed with the detection reagents from Cisbio Kits. The level of intracellular cGMP was determined using an HTRF-based assay kit (CisBio, 62GM2PEC), which detects the displacement of a fluorescence labeled cGMP from its specific antibody. The cGMP produced by test compounds was directly compared to the maximum cGMP production (this value was set to equal 100% activation.) of the published sGC-HDA Compound A:
[drawing 300] (Example 1 in WO 2010/065275, published Jun. 10, 2010). The test compounds' activities were then expressed as a percentage of Compound A, the standard in every experiment. This percent activation was calculated either in the presence or absence of DETA-NO which was then plotted. IP and maximum fold induction was derived using ADA analysis software for 4P fit.
The compounds in the Examples of the instant invention had inflection points (IP) less than or equal to 10 μM and more particularly less than or equal to about 1 μM.
On the technique in general: In TR-FRET formats the signal depends on donor and acceptor labels being close together.

For `CCCCc1nc(-c2nc(N)c3c(n2)NC(=O)[C@@]3(C)c2ccc(F)cc2)cn2ncnc12` [Example 60A, (S)-4-amino-2-(8-butyl-[1,2,4]triazolo[1,5-a]pyrazin-6-yl)-5-(4-fluorophenyl)-5-methyl-5,7-dihydro-6H-pyrrolo[2,3-d]pyrimidin-6-one], the EC50 stood at 22.6 nM.
With `Nc1nc(-c2cn3ncnc3c(CCC(F)(F)C(F)(F)F)n2)nc2c1C(c1nnc(C3CC3)o1)(C1CC1)C(=O)N2` (stereo not drawn) [Example 107A, 4-amino-5-cyclopropyl-5-(5-cyclopropyl-1,3,4-oxadiazol-2-yl)-2-(8-(3,3,4,4,4-pentafluorobutyl)-[1,2,4]triazolo[1,5-a]pyrazin-6-yl)-5H-pyrrolo[2,3-d]pyrimidin-6(7H)-one], the EC50 came to 74.7 nM.
Same read-out and setting: the value for `NC(=O)c1nc(-c2cn3ncnc3c(CCCC(F)(F)F)n2)nc2c1C(c1ccc(C(F)(F)F)cn1)(C1CC1)C(=O)N2` (stereo not drawn) [Example 178A] was 199 nM.
Still for that read-out and setting: the value for `CCCCc1nc(-c2nc(N)c3c(n2)NC(=O)C3(C)c2nnc(C(F)(F)F)o2)cn2ncnc12` (stereo not drawn) [Example 102A, 4-amino-2-(8-butyl-[1,2,4]triazolo[1,5-a]pyrazin-6-yl)-5-methyl-5-(5-(trifluoromethyl)-1,3,4-oxadiazol-2-yl)-5H-pyrrolo[2,3-d]pyrimidin-6(7H)-one] was 29.1 nM; that for `COc1ccc(C2(C3CC3)C(=O)Nc3nc(-c4cn5ncnc5c(CCCC(F)(F)F)n4)nc(N)c32)nc1` (stereo not drawn) [Example 39A, 4-amino-5-cyclopropyl-5-(5-methoxypyridin-2-yl)-2-(8-(4,4,4-trifluorobutyl)-[1,2,4]triazolo[1,5-a]pyrazin-6-yl)-5H-pyrrolo[2,3-d]pyrimidin-6(7H)-one] was 20.1 nM.
Take `CC(C)Cc1nc(-c2ncc3c(n2)NC(=O)[C@@]3(C)c2ccc(F)cc2)cn2ncnc12` [Example 173A, (S)-5-(4-fluorophenyl)-2-(8-isobutyl-[1,2,4]triazolo[1,5-a]pyrazin-6-yl)-5-methyl-5,7-dihydro-6H-pyrrolo[2,3-d]pyrimidin-6-one]: the EC50 stood at 574 nM.
For the compound `Cc1nnc(C2(C)C(=O)Nc3nc(-c4cn5ncnc5c(CCC(F)(F)C(F)(F)F)n4)nc(N)c32)o1` (single isomer, unassigned) [Example 97B, 4-Amino-5-methyl-5-(5-methyl-1,3,4-oxadiazol-2-yl)-2-(8-(3,3,4,4,4-pentafluorobutyl)-[1,2,4]triazolo[1,5-a]pyrazin-6-yl)-5H-pyrrolo[2,3-d]pyrimidin-6(7H)-one], the EC50 turned out to be 219 nM.
Turning to `CC1(c2ccc(C(F)F)cn2)C(=O)Nc2nc(-c3cn4ncnc4c(CCCC(F)(F)F)n3)nc(O)c21` (stereo not drawn) [Example 181A, 4-hydroxy-5-(5-(difluoromethyl)pyridin-2-yl)-5-methyl-2-(8-(4,4,4-trifluorobutyl)-[1,2,4]triazolo[1,5-a]pyrazin-6-yl)-5H-pyrrolo[2,3-d]pyrimidin-6(7H)-one], the EC50 turned out to be 749 nM.
As to `Cc1ccc(C2(C3CC3)C(=O)Nc3nc(-c4cn5ncnc5c(CCC(F)(F)C(F)(F)F)n4)nc(N)c32)nc1` (racemic) [Example 17B, 4-amino-5-cyclopropyl-5-(5-methylpyridin-2-yl)-2-(8-(3,3,4,4,4-pentafluorobutyl)-[1,2,4]triazolo[1,5-a]pyrazin-6-yl)-5H-pyrrolo[2,3-d]pyrimidin-6(7H)-one], the EC50 was determined as 36.1 nM.
On the same count and under the same terms, the figure for `CCCc1nc(-c2nc(N)c3c(n2)NC(=O)C3(c2ccc(F)cn2)C2CC2)cn2ncnc12` (stereo not drawn) [Example 59A, 4-amino-5-cyclopropyl-5-(5-fluoropyridin-2-yl)-2-(8-propyl-[1,2,4]triazolo[1,5-a]pyrazin-6-yl)-5H-pyrrolo[2,3-d]pyrimidin-6(7H)-one] is 263 nM.
Still for that read-out and setting: the value for `CCCCc1nc(-c2nc(O)c3c(n2)NC(=O)C3(C)c2ccc(C)cn2)cn2ncnc12` (stereo not drawn) [Example 161B, 2-(8-butyl-[1,2,4]triazolo[1,5-a]pyrazin-6-yl)-4-hydroxy-5-methyl-5-(5-methylpyridin-2-yl)-5H-pyrrolo[2,3-d]pyrimidin-6(7H)-one] was 303 nM.
On to `CC1(c2ccc(F)cn2)C(=O)Nc2nc(-c3cn4ncnc4c(CCC(F)(F)C(F)(F)F)n3)nc(O)c21` (stereo not drawn) [Example 122B, 5-(5-fluoropyridin-2-yl)-4-hydroxy-5-methyl-2-(8-(3,3,4,4,4-pentafluorobutyl)-[1,2,4]triazolo[1,5-a]pyrazin-6-yl)-5H-pyrrolo[2,3-d]pyrimidin-6(7H)-one], for which the EC50 was determined as 141 nM and the Emax was 100%.
As to `CC1(c2ccc(Cl)cc2)C(=O)Nc2nc(-c3cn4ncnc4c(CCC(F)(F)F)n3)nc(N)c21` (stereo not drawn) [Example 76A, 4-amino-5-(4-chlorophenyl)-5-methyl-2-(8-(3,3,3-trifluoropropyl)-[1,2,4]triazolo[1,5-a]pyrazin-6-yl)-5H-pyrrolo[2,3-d]pyrimidin-6(7H)-one], the EC50 stood at 154 nM.
As for `Nc1nc(-c2cn3ncnc3c(CCC(F)(F)F)n2)nc2c1C(c1ccc(F)c(F)c1)(C1CC1)C(=O)N2` (stereo not drawn) [Example 83A, 4-amino-5-cyclopropyl-5-(3,4-difluorophenyl)-2-(8-(3,3,3-trifluoropropyl)-[1,2,4]triazolo[1,5-a]pyrazin-6-yl)-5H-pyrrolo[2,3-d]pyrimidin-6(7H)-one], the EC50 is 270 nM and the Emax was 100%.
As for `CC1(c2nnc(C(F)F)o2)C(=O)Nc2nc(-c3cn4ncnc4c(CCCC(F)(F)F)n3)nc(N)c21` (stereo not drawn) [Example 100A, 4-amino-5-(5-(difluoromethyl)-1,3,4-oxadiazol-2-yl)-5-methyl-2-(8-(4,4,4-trifluorobutyl)-[1,2,4]triazolo[1,5-a]pyrazin-6-yl)-5H-pyrrolo[2,3-d]pyrimidin-6(7H)-one], the EC50 was found to be 127 nM.
As to `CCCCc1nc(-c2nc(O)c3c(n2)NC(=O)C3(C)c2ccc(Cl)cn2)cn2ncnc12` (stereo not drawn) [Example 160A, 2-(8-butyl-[1,2,4]triazolo[1,5-a]pyrazin-6-yl)-5-(5-chloropyridin-2-yl)-4-hydroxy-5-methyl-5H-pyrrolo[2,3-d]pyrimidin-6(7H)-one], the EC50 was 50.2 nM.
